The source of these data is ChEMBL document CHEMBL3734727, “Metabolomics-Driven Discovery of a Prenylated Isatin Antibiotic Produced by Streptomyces Species MBT28” (2015).

Activity calls are given as the source filed them.

In one experiment the test system is Escherichia coli. As to the kind of experiment: Antibacterial activity against Escherichia coli K-12. The format is functional, organism-based.
A further experiment deals with Staphylococcus aureus. In words: Antibacterial activity against Staphylococcus aureus. Format: functional, organism-based.
Another experiment deals with Bacillus subtilis. In words: Antibacterial activity against Bacillus subtilis assessed as growth inhibition by microtiter plate-based MIC test.

A word on the MIC: it is the smallest concentration in the dilution series that meets the test's criterion for growth inhibition.

Take `CC(C)=CCc1cccc2c1NC(=O)C2=O`: the outcome with Escherichia coli and in the experiment with Staphylococcus aureus was inactive. The MIC with Bacillus subtilis was 25 µg/mL.
